Experimental data published in patent US20220402935A1, “HETEROCYCLIC COMPOUND” (FIMECS, INC., priority 2019, published 2022).

Legend:
IRAK-M = molecular target: T1, IRAK-M (Homo sapiens, UniProt Q9Y616); test: IRAK-M binding inhibitory activity (KINOMEscan active site-dependent competitive assay); parameters: purchased Eurofins Discover X; details: for IC50: second symbol of cell, read-out: IRAK-M binding inhibition IC50 value; for remaining binding at 1 µM: concentration of the test compound 1 μM, first symbol of cell, read-out: IRAK-M binding inhibition activity % Ctrl
T1 sequence (Q9Y616 1-596): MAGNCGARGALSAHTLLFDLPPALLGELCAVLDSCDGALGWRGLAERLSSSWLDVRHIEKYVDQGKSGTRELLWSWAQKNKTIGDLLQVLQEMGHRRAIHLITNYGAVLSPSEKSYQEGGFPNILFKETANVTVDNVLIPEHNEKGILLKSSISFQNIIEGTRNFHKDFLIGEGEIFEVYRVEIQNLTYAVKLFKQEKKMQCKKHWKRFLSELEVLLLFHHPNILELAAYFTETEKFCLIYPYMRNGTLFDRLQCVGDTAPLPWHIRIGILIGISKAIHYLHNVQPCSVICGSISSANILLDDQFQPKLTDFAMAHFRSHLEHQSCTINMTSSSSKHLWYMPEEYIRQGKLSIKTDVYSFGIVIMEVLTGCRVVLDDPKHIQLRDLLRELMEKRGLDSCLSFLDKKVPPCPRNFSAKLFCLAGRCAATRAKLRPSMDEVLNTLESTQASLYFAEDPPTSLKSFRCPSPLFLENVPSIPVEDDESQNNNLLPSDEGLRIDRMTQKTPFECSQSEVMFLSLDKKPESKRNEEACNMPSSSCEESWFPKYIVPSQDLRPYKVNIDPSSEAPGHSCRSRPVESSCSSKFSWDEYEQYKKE
Procedure, shortened: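 Active site-dependent competition binding assay (KINOMEscan) against human IRAK-M. Result expressed as % Ctrl = (compound signal − positive control signal)/(DMSO signal − positive control signal) × 100, where DMSO = 100% Ctrl and control compound = 0% Ctrl.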

[1] = molecular target: T2, human XIAP_BIR3 domain purified protein (Homo sapiens, UniProt P98170); test: XIAP binding inhibitory activity (HTRF, b-Smac ligand); details: for IC50: second symbol of cell, read-out: XIAP binding inhibition IC50 value
T2 construct: purchased R & D
Protocol: Human XIAP binding inhibitory activity was measured by the Homogeneous Time Resolved Fluorescence (HTRF) method with using commercially available human XIAP_BIR3 domain purified protein (R & D) and as a ligand a Smac N-terminal peptide (AVPIAQK (SEQ ID NO: 1)) (hereinafter referred to as “b-Smac”; Peptide Research Laboratories, Inc.) biotinylated at the C-terminus according to a conventional method.
The HTRF method will be described in detail below.
The test compound diluted with a reaction buffer (25 mM HEPES Buffer containing 100 mM NaCl, 0.1% BSA, and 0.1% triton X-100, pH 7.5) was added to a 384-well white shallow bottom plate (Greiner 784076) at 1 μL/well and flash centrifuged for 30 seconds. Subsequently, human XIAP_BIR3 domain purified protein was diluted with the reaction buffer to obtain a 90 nM sample diluent, and the resultant sample diluent was added to the above-mentioned white superficial plate at 4.5 μL/well and flash centrifuged for 30 seconds. Subsequently, b-Smac diluted to 90 nM with the reaction buffer was added to the above-mentioned white superficial plat at 4.5 μL/well and flash centrifuged for 30 seconds. A mixed solution of Anti-6 HIS-Cryptate (Eu^3+ Cryptate-conjugated mouse monoclonal antibody anti-6 Histidine; cisbio) and Streptavidin-XL^eat (Highgrade XL665-conjugated streptavidin; cisbio) both diluted 100-fold with HTRF detection buffer (cisbio) at a volume ratio of 1:1 was added to the above white superficial plate at 10 μL/well. After flash centrifuging the white shallow bottom plate for 30 seconds, the white shallow bottom plate was left at room temperature for 4 hours or more in the dark. The white superficial plate after being left was subjected to fluorescence intensity measurement (excitation wavelength: 320 nm, fluorescence wavelength: 665 nm and 615 nm) by EnVision (Perkin Elmer). The binding inhibition rate (%) was calculated based on the HTRF ratio in the presence of the test compound to the HTRF ratio in the absence of the test compound (fluorescence intensity at 665 nm/fluorescence intensity at 615 nm).
The XIAP binding inhibition rate (%) of test compounds was evaluated.

T2 sequence (P98170 252-356 limits assumed): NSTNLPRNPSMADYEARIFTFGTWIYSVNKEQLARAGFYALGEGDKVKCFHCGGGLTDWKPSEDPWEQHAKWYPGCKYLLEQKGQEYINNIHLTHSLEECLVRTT

| Structure (SMILES) | IC50 (IRAK-M) [nM] | IC50 [1] [nM] | remaining binding at 1 µM (IRAK-M) [%] | inhibition at 3 µM ([1]; concentration of the test compound 3 μM, first symbol of cell, read-out: XIAP binding inhibition rate) [%] |
| --- | --- | --- | --- | --- |
| CN[C@@H](C)C(=O)N[C@H](C(=O)N1CCN(C(=O)c2c(C(=O)N(C)CCOCCOCCOc3cc(CN4CCC(Oc5ccnc6ccsc56)CC4)on3)c3cc(F)ccc3n2C)CC1)C1CCCCC1 [Example 3, 2-(4-((S)-2-cyclohexyl-2-((S)-2-(methylamino)propanamido)acetyl)piperazine-1-carbonyl)-5-fluoro-N,1-dimethyl-N-(2-(2-(2-((5-((4-(thieno[3,2-b]pyridin-7-yloxy)piperidin-1-yl)methyl)isoxazol-3-yl)oxy)ethoxy)ethoxy)ethyl)-1H-indole-3-carboxamide] | 100 to 300 | 300 to 3000 | – | – |
| CN[C@@H](C)C(=O)N[C@H](C(=O)N1CCN(C(=O)c2c(C(=O)NCCOCCOc3cc(CN4CCC(Oc5ccnc6ccsc56)CC4)on3)c3cc(F)c(F)cc3n2C)CC1)C1CCCCC1 [Example 4, 2-(4-((S)-2-cyclohexyl-2-((S)-2-(methylamino)propanamido)acetyl)piperazine-1-carbonyl)-5,6-difluoro-1-methyl-N-(2-(2-((5-((4-(thieno[3,2-b]pyridin-7-yloxy)piperidin-1-yl)methyl)isoxazol-3-yl)oxy)ethoxy)ethyl)-1H-indole-3-carboxamide] | 300 to 1000 | 300 to 3000 | – | – |
| CN[C@@H](C)C(=O)N[C@H](C(=O)N1CCN(C(=O)c2c(C(=O)NCCOCCOCCOCCOc3cc(CN4CCC(Oc5ccnc6ccsc56)CC4)on3)c3cc(F)c(F)cc3n2C)CC1)C1CCCCC1 [Example 6, 2-(4-((S)-2-cyclohexyl-2-((S)-2-(methylamino)propanamido)acetyl)piperazine-1-carbonyl)-5,6-difluoro-1-methyl-N-(2-(2-(2-(2-((5-((4-(thieno[3,2-b]pyridin-7-yloxy)piperidin-1-yl)methyl)isoxazol-3-yl)oxy)ethoxy)ethoxy)ethoxy)ethyl)-1H-indole-3-carboxamide] | 100 to 300 | 300 to 3000 | – | – |
| CN[C@@H](C)C(=O)N[C@H](C(=O)N1CCN(C(=O)c2c(C(=O)NCCOCCOCCOc3cc(CN4CCC(Oc5ccnc6ccsc56)CC4)n(C)n3)c3cc(F)c(F)cc3n2C)CC1)C1CCCCC1 [Example 7, 2-(4-((S)-2-cyclohexyl-2-((S)-2-(methylamino)propanamido)acetyl)piperazine-1-carbonyl)-5,6-difluoro-1-methyl-N-(2-(2-(2-((1-methyl-5-((4-(thieno[3,2-b]pyridin-7-yloxy)piperidin-1-yl)methyl)-1H-pyrazol-3-yl)oxy)ethoxy)ethoxy)ethyl)-1H-indole-3-carboxamide] | – | 300 to 3000 | 25 to 50 | – |
| CN[C@@H](C)C(=O)N[C@H](C(=O)N1CCN(C(=O)c2c(C(=O)NCCOCCOCCOc3cc(CN4CCC(Oc5ccnc6cc(C)sc56)CC4)on3)c3cc(F)c(F)cc3n2C)CC1)C1CCCCC1 [Example 8, 2-(4-((S)-2-cyclohexyl-2-((S)-2-(methylamino)propanamido)acetyl)piperazine-1-carbonyl)-5,6-difluoro-1-methyl-N-(2-(2-(2-((5-((4-((2-methylthieno[3,2-b]pyridin-7-yl)oxy)piperidin-1-yl)methyl)isoxazol-3-yl)oxy)ethoxy)ethoxy)ethyl)-1H-indole-3-carboxamide] | 30 to 100 | 300 to 3000 | – | – |
| CN[C@@H](C)C(=O)N[C@H](C(=O)N1CCN(C(=O)c2cc3cc(F)c(F)cc3n2CCOCCOCCOc2cc(CN3CCC(Oc4ccnc5ccsc45)CC3)on2)CC1)C1CCCCC1 [Example 30, (S)-N-((S)-1-cyclohexyl-2-(4-(5,6-difluoro-1-(2-(2-(2-((5-((4-(thieno[3,2-b]pyridin-7-yloxy)piperidin-1-yl)methyl)isoxazol-3-yl)oxy)ethoxy)ethoxy)ethyl)-1H-indole-2-carbonyl)piperazin-1-yl)-2-oxoethyl)-2-(methylamino)propanamide] | – | – | – | > 25 |
| CN[C@@H](C)C(=O)N[C@H](C(=O)N1CCN(C(=O)c2cc3cc(F)ccc3n2CC(=O)N2C[C@@H](Oc3cc(CN4CCC(Oc5ccnc6ccsc56)CC4)on3)C[C@H]2CO)[C@@H](C)C1)C1CCCCC1 [Example 43, (S)-N-((S)-1-cyclohexyl-2-((S)-4-(5-fluoro-1-(2-((2S,4S)-2-(hydroxymethyl)-4-((5-((4-(thieno[3,2-b]pyridin-7-yloxy)piperidin-1-yl)methyl)isoxazol-3-yl)oxy)pyrrolidin-1-yl)-2-oxoethyl)-1H-indole-2-carbonyl)-3-methylpiperazin-1-yl)-2-oxoethyl)-2-(methylamino)propanamide] | – | 3000 to 30000 | – | – |
| CN[C@@H](C)C(=O)N[C@H](C(=O)N1CCN(C(=O)c2cc3cc(F)ccc3n2CC(=O)N(C)CCOc2cc(CN3CCC(Oc4ccnc5ccsc45)CC3)on2)[C@@H](C)C1)C1CCCCC1 [Example 50, (S)-N-((S)-1-cyclohexyl-2-((S)-4-(5-fluoro-1-(2-(methyl(2-((5-((4-(thieno[3,2-b]pyridin-7-yloxy)piperidin-1-yl)methyl)isoxazol-3-yl)oxy)ethyl)amino)-2-oxoethyl)-1H-indole-2-carbonyl)-3-methylpiperazin-1-yl)-2-oxoethyl)-2-(methylamino)propanamide] | – | 3000 to 30000 | – | – |

Continued, values first:

| IC50 (IRAK-M) [nM] | IC50 [1] [nM] | remaining binding at 1 µM (IRAK-M) [%] | inhibition at 3 µM ([1]; concentration of the test compound 3 μM, first symbol of cell, read-out: XIAP binding inhibition rate) [%] | Structure (SMILES) |
| --- | --- | --- | --- | --- |
| 300 to 1000 | 300 to 3000 | – | – | CN[C@@H](C)C(=O)N[C@H](C(=O)N1CCN(C(=O)c2c(C(=O)NCCOCCOCCOc3ccc(S(=O)(=O)N4CCC(Oc5ncnc6ccsc56)CC4)cc3)c3ccc(OC)cc3n2C)CC1)C1CCCCC1 [Example 2, 2-(4-((S)-2-Cyclohexyl-2-((S)-2-(methylamino)propanamido)acetyl)piperazine-1-carbonyl)-6-methoxy-1-methyl-N-(2-(2-(2-(4-((4-(thieno[3,2-d]pyrimidin-4-yloxy)piperidin-1-yl)sulfonyl)phenoxy)ethoxy)ethoxy)ethyl)-1H-indole-3-carboxamide] |
| 300 to 1000 | 300 to 3000 | – | – | CN[C@@H](C)C(=O)N[C@H](C(=O)N1CCN(C(=O)c2c(C(=O)NCCOCCOCCOc3cc(CN4CCC(Oc5ccnc6ccsc56)CC4)on3)c3cc(F)c(F)cc3n2C)CC1)C1CCCCC1 [Example 5, 2-(4-((S)-2-cyclohexyl-2-((S)-2-(methylamino)propanamido)acetyl)piperazine-1-carbonyl)-5,6-difluoro-1-methyl-N-(2-(2-(2-((5-((4-(thieno[3,2-b]pyridin-7-yloxy)piperidin-1-yl)methyl)isoxazol-3-yl)oxy)ethoxy)ethoxy)ethyl)-1H-indole-3-carboxamide] |
| 30 to 100 | 300 to 3000 | – | – | CN[C@@H](C)C(=O)N[C@H](C(=O)N1CCN(C(=O)c2c(C(=O)NCCOCCOCCOc3cc(C(C)N4CCC(Oc5ccnc6cc(C)sc56)CC4)on3)c3cc(F)c(F)cc3n2C)CC1)C1CCCCC1 (stereo partly drawn) [Example 9, 2-(4-((S)-2-cyclohexyl-2-((S)-2-(methylamino)propanamido)acetyl)piperazine-1-carbonyl)-5,6-difluoro-1-methyl-N-(2-(2-(2-((5-(1-(4-((2-methylthieno[3,2-b]pyridin-7-yl)oxy)piperidin-1-yl)ethyl)isoxazol-3-yl)oxy)ethoxy)ethoxy)ethyl)-1H-indole-3-carboxamide] |
| – | 300 to 3000 | 25 to 50 | – | CN[C@@H](C)C(=O)N[C@H](C(=O)N1CCN(C(=O)c2c(C(=O)NCCOCCOCCOc3cc(CN4CCC(Oc5ccnc6ccsc56)CC4)on3)c3cc(F)c(F)cc3n2C)C[C@H]1C)C1CCCCC1 [Example 10, 2-((R)-4-((S)-2-cyclohexyl-2-((S)-2-(methylamino)propanamido)acetyl)-3-methylpiperazine-1-carbonyl)-5,6-difluoro-1-methyl-N-(2-(2-(2-((5-((4-(thieno[3,2-b]pyridin-7-yloxy)piperidin-1-yl)methyl)isoxazol-3-yl)oxy)ethoxy)ethoxy)ethyl)-1H-indole-3-carboxamide] |
